Data: patent US6667413B2, “Uracil compounds and use thereof” (Sumitomo Chemical Company, Limited, priority 1999, dated 2003)

Tests used:
Assay type in all cases: in vivo
[1] = test system: Ivyleaf morningglory (Ipomoea hederacea); experiment: Test Example 1: foliar treatment, herbicidal activity; conditions: foliar spray, 125 g/ha, 7 days after application
Description: (§1) A cylindrical plastic pot having a diameter of 10 cm and a depth of 10 cm was filled with soil and then seeded with Ivyleaf morningglory (Ipomoea hederacea), velvetleaf (Abutilon theophrasti), barnyardgrass (Echinochloa crus-galli) and blackgrass (Alopecurus myosuroides). These test plants were grown in a greenhouse for 9 days. Then, each of compounds 1-1,2-1, 3-1,3-2, 3-11 and 3-12 was formulated into an emulsifiable concentrate according to Formulation Example 2 and then diluted to the prescribed amount with water containing a spreading agent and the dilution was uniformly sprayed over the foliage of the test plants with a sprayer at a rate of 1000 liters per hectare After the application, the test plants were grown in the greenhouse for 7 days, and the herbicidal activity of the applied composition was determined.

[2] = test system: barnyardgrass (Echinochloa crus-galli); experiment: as above; conditions: foliar spray, 125 g/ha, 7 days after application
Description: as §1

[3] = test system: blackgrass (Alopecurus myosuroides); experiment: as above; conditions: foliar spray, 125 g/ha, 7 days after application
Description: as §1

[4] = test system: velvetleaf (Abutilon theophrasti); experiment: as above; conditions: foliar spray, 125 g/ha, 7 days after application
Description: as §1

[5] = test system: Ivyleaf morningglory (Ipomoea hederacea); experiment: Test Example 2: soil surface treatment, herbicidal activity; conditions: sprayed over the surface of the soil, 500 g/ha, 7 days after application
Source text: (§2) A cylindrical plastic pot having a diameter of 10 cm and a depth of 10 cm was filled with soil and then seeded with Ivyleaf morningglory (Ipomoea hederacea), velvetleaf (Abutilon theophrasti) and barnyardgrass (Echinochloa crus-galli). Then, each of the compounds 1-1,2-1 and 3-1 was formulated into an emulsifiable concentrate according to Formulation Example 2 and then diluted to the prescribed amount with water, and the dilution was uniformly sprayed over the surface of the soil with a sprayer at a rate of 1000 liters per hectare. After the application, the test plants were grown in the greenhouse for 7 days, and the herbicidal activity of the applied composition was examined.

[6] = test system: barnyardgrass (Echinochloa crus-galli); experiment: as above; conditions: sprayed over the surface of the soil, 500 g/ha, 7 days after application
Source text: as §2

[7] = test system: velvetleaf (Abutilon theophrasti); experiment: as above; conditions: sprayed over the surface of the soil, 500 g/ha, 7 days after application
Source text: as §2

[8] = test system: Ivyleaf morningglory (Ipomoea hederacea); experiment: Test Example 4: soil surface treatment, herbicidal activity; conditions: sprayed over the surface of the soil, 2000 g/ha, 7 days after application
Source text: as §2, with “theophrasti),” for “theophrasti) and”, “crus-galli) and blackgrass (Alopecurus myosuroides).” for “crus-galli).”, “3-2,3-11, 3-12, 3-16, 3-20” for “1-1,2-1”, “3-198” for “3-1”

[9] = test system: barnyardgrass (Echinochloa crus-galli); experiment: as above; conditions: sprayed over the surface of the soil, 2000 g/ha, 7 days after application
Source text: as §2, with “theophrasti),” for “theophrasti) and”, “crus-galli) and blackgrass (Alopecurus myosuroides).” for “crus-galli).”, “3-2,3-11, 3-12, 3-16, 3-20” for “1-1,2-1”, “3-198” for “3-1”

[10] = test system: blackgrass (Alopecurus myosuroides); experiment: as above; conditions: sprayed over the surface of the soil, 2000 g/ha, 7 days after application
Source text: as §2, with “theophrasti),” for “theophrasti) and”, “crus-galli) and blackgrass (Alopecurus myosuroides).” for “crus-galli).”, “3-2,3-11, 3-12, 3-16, 3-20” for “1-1,2-1”, “3-198” for “3-1”

[11] = test system: velvetleaf (Abutilon theophrasti); experiment: as above; conditions: sprayed over the surface of the soil, 2000 g/ha, 7 days after application
Source text: as §2, with “theophrasti),” for “theophrasti) and”, “crus-galli) and blackgrass (Alopecurus myosuroides).” for “crus-galli).”, “3-2,3-11, 3-12, 3-16, 3-20” for “1-1,2-1”, “3-198” for “3-1”

[12] = test system: Broadleaf signalgrass (Brachiaria platyphylla); experiment: Test Example 6: foliar treatment, herbicidal activity index; design: key: 0: no or little difference in the degree of germination or growth between the treated and the untreated tested plants at the time of examination; 10: the test plants died complete or their germination or growth was completely inhibited; conditions: foliar spray, 4 days after application, index 0 to 10
Description: (§3) A plastic pot (27 cm×19 cm×7 cm) was filled with soil and then seeded with Johnsongrass (Sorghum halepense), Giant foxtail (Setaria faberi), barnyardgrass (Echinochloa crus-galli), large crabgrass (Digitaria sanguinalis), Broadleaf signalgrass (Brachiaria platyphylla) and wild oat (Avena fatua). These test plants were grown in a greenhouse for 25 days. After then, each of the compounds 3-11, 4-22, B and C was formulated into an emulsifiable concentrate according to Formulation Example 2 and then diluted to the prescribed amount with water containing a spreading agent and the dilution was uniformly sprayed over the foliage of the test plants with a sprayer at a rate of 1000 liters per hectare. After the application, the test plants were grown in the greenhouse for 4 days, and the herbicidal activity was examined. (In the Table 9, the test plants are shown as follows. Johnsongrass: J, Giant foxtail: GF, Barnyardgrass: B Large crabgrass: LC, Broadleaf signalgrass: BC wild oat: W

[13] = test system: Giant foxtail (Setaria faberi); experiment: as above; design: key: 0: no or little difference in the degree of germination or growth between the treated and the untreated tested plants at the time of examination; 10: the test plants died complete or their germination or growth was completely inhibited; conditions: foliar spray, 4 days after application, index 0 to 10
Description: as §3

[14] = test system: Johnsongrass (Sorghum halepense); experiment: as above; design: key: 0: no or little difference in the degree of germination or growth between the treated and the untreated tested plants at the time of examination; 10: the test plants died complete or their germination or growth was completely inhibited; conditions: foliar spray, 4 days after application, index 0 to 10
Description: as §3

[15] = test system: barnyardgrass (Echinochloa crus-galli); experiment: as above; design: key: 0: no or little difference in the degree of germination or growth between the treated and the untreated tested plants at the time of examination; 10: the test plants died complete or their germination or growth was completely inhibited; conditions: foliar spray, 4 days after application, index 0 to 10
Description: as §3

[16] = test system: large crabgrass (Digitaria sanguinalis); experiment: as above; design: key: 0: no or little difference in the degree of germination or growth between the treated and the untreated tested plants at the time of examination; 10: the test plants died complete or their germination or growth was completely inhibited; conditions: foliar spray, 4 days after application, index 0 to 10
Description: as §3

[17] = test system: wild oat (Avena fatua); experiment: as above; design: key: 0: no or little difference in the degree of germination or growth between the treated and the untreated tested plants at the time of examination; 10: the test plants died complete or their germination or growth was completely inhibited; conditions: foliar spray, 4 days after application, index 0 to 10
Description: as §3

[18] = test system: Ivyleaf morningglory (Ipomoea hederacea); experiment: Test Example 3: foliar treatment, herbicidal activity; conditions: foliar spray, 500 g/ha, 7 days after application
Description: (§4) A cylindrical plastic pot having a diameter of 10 cm and a depth of 10 cm was filled with soil and then seeded with Ivyleaf morningglory (Ipomoea hederacea), velvetleaf (Abutilon theophrasti) and barnyardgrass (Echinochloa crus-galli). These test plants were grown in a greenhouse for 9 days. After then, each of the compounds 3-16, 3-20 and 3-198 was formulated into an emulsifiable concentrate according to Formulation Example 2 and then diluted to the prescribed amount with water containing a spreading agent and the dilution was uniformly sprayed over the foliage of the test plants with a sprayer at a rate of 1000 liters per hectare. After the application, the test plants were grown in the greenhouse for 7 days, and the herbicidal activity was examined.

[19] = test system: barnyardgrass (Echinochloa crus-galli); experiment: as above; conditions: foliar spray, 500 g/ha, 7 days after application
Description: as §4

[20] = test system: velvetleaf (Abutilon theophrasti); experiment: as above; conditions: foliar spray, 500 g/ha, 7 days after application
Description: as §4

COC(=O)C(C)Oc1ccc(Oc2cc(-n3c(=O)cc(C(F)(F)F)n(C)c3=O)c(F)cc2Cl)cc1 (centres unmarked) [Compound 1-1, methyl 2-[4-{2-chloro-4-fluoro-5-[3-methyl-2,6-dioxo-4-(trifluoromethyl)-1,2,3,6-tetrahydropyrimidin-1-yl]phenoxy}phenoxy]propionate]
completely controlled: growth of Ivyleaf morningglory [1] | growth of barnyardgrass [2] | growth of blackgrass [3] | growth of velvetleaf [4] | emergence of Ivyleaf morningglory [5] | emergence of barnyardgrass [6] | emergence of velvetleaf [7]

COC(=O)C(C)Oc1cccc(Oc2cc(-n3c(=O)cc(C(F)(F)F)n(C)c3=O)c(F)cc2Cl)c1 (centres unmarked) [Compound 2-1, methyl 2-[3-{2-chloro-4-fluoro-5-[3-methyl-2,6-dioxo-4-(trifluoromethyl)-1,2,3,6-tetrahydropyrimidin-1-yl]phenoxy}phenoxy]propionate]
completely controlled: growth of Ivyleaf morningglory [1] | growth of barnyardgrass [2] | growth of blackgrass [3] | growth of velvetleaf [4] | emergence of Ivyleaf morningglory [5] | emergence of barnyardgrass [6] | emergence of velvetleaf [7]

COC(=O)C(C)Oc1ccccc1Oc1cc(-n2c(=O)cc(C(F)(F)F)n(C)c2=O)c(F)cc1Cl (centres unmarked) [Compound 3-1, methyl 2-[2-{2-chloro-4-fluoro-5-[3-methyl-2,6-dioxo-4-(trifluoromethyl)-1,2,3,6-tetrahydropyrimidin-1-yl]phenoxy}phenoxy]propionate]
completely controlled: growth of Ivyleaf morningglory [1] | growth of barnyardgrass [2] | growth of blackgrass [3] | growth of velvetleaf [4] | emergence of Ivyleaf morningglory [5] | emergence of barnyardgrass [6] | emergence of velvetleaf [7]

COC(=O)COc1ccccc1Oc1cc(-n2c(=O)cc(C(F)(F)F)n(C)c2=O)c(F)cc1Cl [Compound 3-11, Methyl [2-{2-chloro-4-fluoro-5-[3-methyl-2,6-dioxo-4-(trifluoromethyl)-1,2,3,6-tetrahydropyrimidin-1-yl]phenoxy}phenoxy]acetate]
completely controlled: growth of Ivyleaf morningglory [1] | growth of barnyardgrass [2] | growth of blackgrass [3] | growth of velvetleaf [4] | emergence of Ivyleaf morningglory [8] | emergence of barnyardgrass [9] | emergence of blackgrass [10] | emergence of velvetleaf [11]
8: Herbicidal activity BC ([12]; 0.33 g/ha) | Herbicidal activity GF ([13]; 0.33 g/ha) | Herbicidal activity J ([14]; 0.33 g/ha) | Herbicidal activity B ([15]; 1 g/ha) | Herbicidal activity LC ([16]; 0.33 g/ha) | Herbicidal activity W ([17]; 0.33 g/ha)
9: Herbicidal activity BC ([12]; 1 g/ha) | Herbicidal activity GF ([13]; 1 g/ha) | Herbicidal activity GF ([13]; 3.3 g/ha) | Herbicidal activity J ([14]; 1 g/ha) | Herbicidal activity LC ([16]; 1 g/ha)
7: Herbicidal activity B ([15]; 0.33 g/ha)
10: Herbicidal activity BC ([12]; 3.3 g/ha) | Herbicidal activity J ([14]; 3.3 g/ha) | Herbicidal activity B ([15]; 3.3 g/ha) | Herbicidal activity LC ([16]; 3.3 g/ha) | Herbicidal activity W ([17]; 1 g/ha) | Herbicidal activity W ([17]; 3.3 g/ha)

Cn1c(C(F)(F)F)cc(=O)n(-c2cc(Oc3ccccc3OCC(=O)OC(C)(C)C)c(Cl)cc2F)c1=O [Compound 3-16]
completely controlled: growth of Ivyleaf morningglory [18] | growth of barnyardgrass [19] | growth of velvetleaf [20] | emergence of Ivyleaf morningglory [8] | emergence of barnyardgrass [9] | emergence of blackgrass [10] | emergence of velvetleaf [11]

C=CCOC(=O)COc1ccccc1Oc1cc(-n2c(=O)cc(C(F)(F)F)n(C)c2=O)c(F)cc1Cl [Compound 3-20, allyl [2-{2-chloro-4-fluoro-5-[3-methyl-2,6-dioxo-4-(trifluoromethyl)-1,2,3,6-tetrahydropyrimidin-1-yl]phenoxy}phenoxy]acetate]
completely controlled: growth of Ivyleaf morningglory [18] | growth of barnyardgrass [19] | growth of velvetleaf [20] | emergence of Ivyleaf morningglory [8] | emergence of barnyardgrass [9] | emergence of blackgrass [10] | emergence of velvetleaf [11]

CC(C)COC(=O)COc1ccccc1Oc1cc(-n2c(=O)cc(C(F)(F)F)n(C)c2=O)c(F)cc1Cl [Compound 3-198, isobutyl [2-{2-chloro-4-fluoro-5-[3-methyl-2,6-dioxo-4-(trifluoromethyl)-1,2,3,6-tetrahydropyrimidin-1-yl]phenoxy}phenoxy]acetate]
completely controlled: growth of Ivyleaf morningglory [18] | growth of barnyardgrass [19] | growth of velvetleaf [20] | emergence of Ivyleaf morningglory [8] | emergence of barnyardgrass [9] | emergence of blackgrass [10] | emergence of velvetleaf [11]
